In PubChem BioAssay (NCI):
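Each compound was tested at five concentrations against cells in 96-well plates for 48 hours. At the GI50, growth is halved. At the TGI there is no net growth.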

How the values were obtained:
Assay in all cases: NCI-60 cell line screen, 48 h
KM12 colon = test system: KM12 colon
DU-145 prostate = test system: DU-145 prostate
COLO 205 colon = test system: COLO 205 colon
MDA-MB-435 = test system: MDA-MB-435
OVCAR-4 ovarian = test system: OVCAR-4 ovarian
MCF7 breast = test system: MCF7 breast
A498 renal = test system: A498 renal
SF-268 CNS = test system: SF-268 CNS
BT-549 breast = test system: BT-549 breast
CAKI-1 renal = test system: CAKI-1 renal

## O=C(O)CCC(c1ccccc1)(c1ccccc1)c1ccccc1
KM12 colon
  TGI: > 100 µM
DU-145 prostate
  TGI: > 100 µM
COLO 205 colon
  TGI: 97.6 µM
MDA-MB-435
  TGI: > 100 µM
OVCAR-4 ovarian
  TGI: > 100 µM
MCF7 breast
  TGI: > 71 µM
A498 renal
  TGI: > 100 µM
SF-268 CNS
  TGI: > 92.9 µM
BT-549 breast
  GI50: 80.1 µM
  TGI: > 100 µM
CAKI-1 renal
  GI50: 66.4 µM
  TGI: > 100 µM

## COc1ccc(Oc2nc3cc(N)cc(N)c3nc2-c2ccccc2)cc1
KM12 colon
  GI50: 37.4 µM
  TGI: > 100 µM
DU-145 prostate
  GI50: 69.4 µM
  TGI: > 100 µM
COLO 205 colon
  GI50: > 100 µM
  TGI: > 100 µM
MDA-MB-435
  GI50: 40.6 µM
  TGI: > 100 µM
OVCAR-4 ovarian
  GI50: 3.75 µM
  TGI: 24.6 µM
MCF7 breast
  GI50: 48.2 µM
  TGI: > 100 µM
A498 renal
  GI50: 49.3 µM
  TGI: > 100 µM
SF-268 CNS
  GI50: 20.8 µM
  TGI: > 100 µM
BT-549 breast
  GI50: 32.1 µM
  TGI: > 100 µM
CAKI-1 renal
  GI50: 79.6 µM
  TGI: > 100 µM

## COc1cccc2c1C(=O)c1c(O)c3c(c(O)c1C2=O)C[C@@](O)(/C(CO)=N/NC(=O)CCCCCN1C(=O)C=CC1=O)C[C@@H]3O[C@H]1C[C@H](N)[C@H](O)[C@H](C)O1
KM12 colon
  GI50: 1.98 µM
  TGI: > 100 µM
DU-145 prostate
  GI50: 0.554 µM
  TGI: 38.6 µM
COLO 205 colon
  GI50: 0.8 µM
  TGI: 10.2 µM
MDA-MB-435
  GI50: 2.03 µM
  TGI: 13.4 µM
OVCAR-4 ovarian
  GI50: 2.25 µM
  TGI: 22 µM
MCF7 breast
  GI50: 0.147 µM
  TGI: > 100 µM
A498 renal
  GI50: 0.361 µM
  TGI: 2.15 µM
SF-268 CNS
  GI50: 0.648 µM
  TGI: 12.4 µM
BT-549 breast
  GI50: 1.21 µM
  TGI: 8.96 µM
CAKI-1 renal
  GI50: 3.6 µM
  TGI: 56.4 µM

## C[C@@H](Nc1cc(F)cc(F)c1)c1cc(C(=O)N(C)C)cc2c(=O)cc(N3CCOCC3)oc12
KM12 colon
  GI50: > 46.1 µM
  TGI: > 100 µM
DU-145 prostate
  GI50: 33.1 µM
  TGI: > 100 µM
COLO 205 colon
  GI50: 7.09 µM
  TGI: 51.1 µM
MDA-MB-435
  GI50: 8.17 µM
  TGI: > 100 µM
OVCAR-4 ovarian
  GI50: 26.1 µM
  TGI: > 100 µM
MCF7 breast
  GI50: 0.894 µM
  TGI: 99 µM
A498 renal
  TGI: < 0.0203 µM
SF-268 CNS
  GI50: 22.4 µM
  TGI: > 100 µM
BT-549 breast
  GI50: 0.14 µM
  TGI: 38.4 µM
CAKI-1 renal
  GI50: 9.44 µM
  TGI: > 100 µM

## C#C[C@@]1(O)[C@@H](CO)O[C@@H](n2cc(Br)c3c(Cl)ccnc32)[C@@H]1O
KM12 colon
  GI50: 45.2 µM
  TGI: > 100 µM
DU-145 prostate
  GI50: 0.454 µM
  TGI: 4.79 µM
COLO 205 colon
  GI50: 0.881 µM
  TGI: > 100 µM
MDA-MB-435
  GI50: 8.06 µM
  TGI: > 100 µM
OVCAR-4 ovarian
  GI50: 0.677 µM
  TGI: > 100 µM
MCF7 breast
  GI50: 0.394 µM
  TGI: > 31.6 µM
A498 renal
  GI50: 0.303 µM
  TGI: 2.55 µM
SF-268 CNS
  GI50: 10.5 µM
  TGI: > 100 µM
BT-549 breast
  GI50: 0.522 µM
  TGI: 12.2 µM
CAKI-1 renal
  GI50: 0.602 µM
  TGI: > 100 µM

## COC(=O)[C@]12CC[C@@H](C)[C@H](C)[C@@H]1C1=CC[C@@H]3[C@@]4(C)C(C=O)=C[C@@](C)(CO)[C@@H]4[C@H](O)C[C@@]3(C)[C@]1(C)CC2
KM12 colon
  GI50: 4.02 µM
  TGI: 15.3 µM
DU-145 prostate
  GI50: 4.77 µM
  TGI: 16.5 µM
COLO 205 colon
  GI50: 2.17 µM
  TGI: 4.93 µM
MDA-MB-435
  GI50: 3.29 µM
  TGI: 13.4 µM
OVCAR-4 ovarian
  GI50: 4.17 µM
  TGI: 16.8 µM
MCF7 breast
  GI50: 2.44 µM
  TGI: 10.3 µM
A498 renal
  GI50: 6.37 µM
  TGI: 19.4 µM
SF-268 CNS
  GI50: 5.16 µM
  TGI: 20.4 µM
BT-549 breast
  GI50: 3.27 µM
  TGI: 14.1 µM
CAKI-1 renal
  GI50: 3.71 µM
  TGI: 16.8 µM

## COC(=O)[C@H](Cc1cn(C)cn1)NC(=O)[C@H](CC(=O)OCc1ccccc1)NC(=O)Nc1cc(C(F)(F)F)cc(C(F)(F)F)c1
KM12 colon
  GI50: 14 µM
  TGI: 30.7 µM
DU-145 prostate
  GI50: 6.18 µM
  TGI: 19.3 µM
COLO 205 colon
  GI50: 3.79 µM
  TGI: 13.8 µM
MDA-MB-435
  GI50: 5.9 µM
  TGI: 18.8 µM
OVCAR-4 ovarian
  GI50: 11.6 µM
  TGI: 27.1 µM
MCF7 breast
  GI50: 3.74 µM
  TGI: > 100 µM
A498 renal
  GI50: 12.8 µM
  TGI: 25.4 µM
SF-268 CNS
  GI50: 4.51 µM
  TGI: 18.1 µM
BT-549 breast
  GI50: 12 µM
  TGI: 25.8 µM
CAKI-1 renal
  GI50: 14.1 µM
  TGI: 27.8 µM

## CC12OC(CC(O)C1O)n1c3ccccc3c3c4c(c5c6ccccc6n2c5c31)C(=O)N(CCN1CCOCC1)C4=O (stereo unspecified)
KM12 colon
  GI50: 1.25 µM
  TGI: 6.5 µM
DU-145 prostate
  GI50: 0.949 µM
  TGI: 6.1 µM
COLO 205 colon
  GI50: 0.606 µM
  TGI: 4.51 µM
MDA-MB-435
  GI50: 1.46 µM
  TGI: 7.56 µM
OVCAR-4 ovarian
  GI50: 2.2 µM
  TGI: 12.3 µM
MCF7 breast
  GI50: 0.242 µM
  TGI: 8.02 µM
A498 renal
  GI50: 0.838 µM
  TGI: 3.27 µM
SF-268 CNS
  GI50: 1.08 µM
  TGI: 7.87 µM
BT-549 breast
  GI50: 1.61 µM
  TGI: 8.21 µM
CAKI-1 renal
  GI50: 1.02 µM
  TGI: 5.43 µM

## O=C(Nc1nc(-c2ccc(Cl)cc2)cs1)c1cc(O)c(O)c(O)c1
KM12 colon
  GI50: 315 µM
  TGI: 1460 µM
DU-145 prostate
  GI50: 247 µM
  TGI: 1840 µM
COLO 205 colon
  GI50: 584 µM
  TGI: 1810 µM
MDA-MB-435
  GI50: 266 µM
  TGI: 2980 µM
OVCAR-4 ovarian
  GI50: 142 µM
  TGI: 2490 µM
MCF7 breast
  GI50: 349 µM
  TGI: > 5000 µM
A498 renal
  GI50: 927 µM
  TGI: 3480 µM
SF-268 CNS
  GI50: 146 µM
  TGI: 1400 µM
BT-549 breast
  GI50: 252 µM
  TGI: 1870 µM
CAKI-1 renal
  GI50: 115 µM
  TGI: 660 µM

## CN1CCC2(CC1)N=C(SCC(=O)Nc1cnc3ccccc3c1)C(c1ccc(Br)cc1)=N2
KM12 colon
  GI50: 2.62 µM
  TGI: 6.55 µM
DU-145 prostate
  GI50: 3.24 µM
  TGI: 10.4 µM
COLO 205 colon
  GI50: 1.64 µM
  TGI: 3.35 µM
MDA-MB-435
  GI50: 1.72 µM
  TGI: 3.21 µM
OVCAR-4 ovarian
  GI50: 3.52 µM
  TGI: 15.8 µM
MCF7 breast
  GI50: 1.8 µM
  TGI: 3.55 µM
A498 renal
  GI50: 3.96 µM
  TGI: 14.9 µM
SF-268 CNS
  GI50: 3.46 µM
  TGI: 14.7 µM
BT-549 breast
  GI50: 12 µM
  TGI: 24.4 µM
CAKI-1 renal
  GI50: 1.64 µM
  TGI: 3.94 µM

## C[N+](C)(C)CC(=O)N/N=C(\Cc1nc2ccc([N+](=O)[O-])cc2[nH]c1=O)C(=O)Nc1nc2ccc([N+](=O)[O-])cc2s1
KM12 colon
  TGI: > 100 µM
DU-145 prostate
  TGI: > 100 µM
COLO 205 colon
  TGI: > 100 µM
MDA-MB-435
  TGI: > 100 µM
OVCAR-4 ovarian
  TGI: > 100 µM
MCF7 breast
  TGI: > 100 µM
A498 renal
  TGI: > 100 µM
SF-268 CNS
  TGI: > 100 µM
BT-549 breast
  TGI: 94.3 µM
CAKI-1 renal
  TGI: 92 µM

## COc1cc2c(cc1OC)C(C(CCCCCC(CCC(C)C)C1NCCc3cc(OC)c(OC)cc31)CCC(C)C)NCC2 (stereo unspecified)
KM12 colon
  GI50: 0.438 µM
  TGI: 1.26 µM
DU-145 prostate
  GI50: 1.19 µM
  TGI: 2.55 µM
COLO 205 colon
  GI50: 0.225 µM
  TGI: 0.464 µM
MDA-MB-435
  GI50: 0.516 µM
  TGI: 2.25 µM
OVCAR-4 ovarian
  GI50: 1.54 µM
  TGI: 2.92 µM
MCF7 breast
  GI50: 0.651 µM
  TGI: 1.91 µM
A498 renal
  GI50: 1.51 µM
  TGI: 2.99 µM
SF-268 CNS
  GI50: 1.34 µM
  TGI: 2.79 µM
BT-549 breast
  GI50: 1.72 µM
  TGI: 3.12 µM
CAKI-1 renal
  GI50: 1.55 µM
  TGI: 3.19 µM
